# Patent US20250082587A1, “Method Of Treating Major Depressive Disorder” (CLEXIO BIOSCIENCES LTD., priority 2023, published 2025)
# Test system: subjects with MDD with an inadequate response to standard antidepressant therapy
# Test: Phase 2, randomized double blind study of 40 mg immediate release once daily esketamine as adjunct therapy; change in MADRS score
# Format: in vivo, human
# Conditions: for Change from baseline against placebo (MADRS): sub-analysis, 40 mg oral once daily
# Experimental: A Phase 2, randomized double blind study to assess the safety and efficacy of 40 mg immediate release once daily esketamine as an adjunct therapy for subjects with MDD with an inadequate response to standard antidepressant therapy.
# The safety and efficacy of 65 subjects with MDD with an inadequate response to standard antidepressant therapy were assessed in a Phase 2, randomized double blind study following the administration of 40 mg of immediate release once daily esketamine as adjunct therapy.
# The study comprised 3 phases, screening (Days 0-28), double-blind treatment (days 29-56) and post-treatment safety follow-up (days 57-70) following the last study treatment administration.
# The study's primary efficacy endpoint was the change from baseline to week 4 in the 10 item Montgomery-Åsberg Depression Rating Scale (MADRS). Key secondary efficacy endpoints included the change in the self-rated Symptoms of Depression Questionnaire (SDQ) from Baseline to Week 4, the change in the Sheehan Disability Scale (SDS) from Baseline to Week 4, the change in the MADRS score from Baseline to Week 2 and the change in the Clinical Global Impression-Severity (CGI-S) from Baseline to Week 4.
# During screening, subjects were assessed for study eligibility and washed out from disallowed drugs. Inclusion criteria for the study included the subjects presenting with a baseline MADRS of at least 24.
# After being found eligible, subjects were randomized to receive once daily, either placebo or 40 mg of oral, immediate release, esketamine, respectively.
# Subjects received the first dose of their study drug at the study site and were then closely monitored for 3 hours to assess for potential neuropsychiatric adverse events using a comprehensive set of scales to identify sleepiness, sedation and dissociative effects. Thereafter, the subject was provided with a 1 week supply of the study drug for administration at their place of residence and instructed to take the study drug in the evening (except at the day of the weekly visit when it is taken at the study site) and not to drive for at least 8 hours following the dosing. At every subject visit, a psychiatrist evaluated the subject's MADRS score.
structure (smiles),measurement,setting,value
"CN[C@]1(c2ccccc2Cl)CCCCC1=O [esketamine, (2S)-2-(2-Chlorophenyl)-2-(methylamino)cyclohexanone]",improvement in the symptoms,"baseline MADRS of 28 or more, 40 mg immediate release oral, 28 days",statistically significant improvement
same,improvement in depression symptoms,"baseline MADRS of less than 28, 40 mg immediate release oral, 28 days",no identifiable improvement
same,Change from baseline against placebo (MADRS),"baseline MADRS score <28, 28 days",+4.25
same,Change from baseline against placebo (MADRS),"baseline MADRS score ≥28, 28 days, p value 0.005",−7.425
same,Change from baseline against placebo (MADRS),"baseline MADRS score ≥33, 28 days, p value 0.050",−5.978
same,primary efficacy endpoint (change from baseline to week 4 in MADRS) between treatment groups,"subjects who completed the study, 40 mg oral once daily vs placebo",clinically meaningful and statistically significant
